Laboratory results published in patent US8466132B2, “Substituted tetracycline compounds” (Paratek Pharmaceuticals, Inc., priority 2004, dated 2013).

Columns and labels:
Format in all cases: cell-based
Design in all cases: key: Compounds which showed superior inhibition of S. aureus, S. pseumoniae and E. coli are indicated by “***,”; compounds which showed very good or good inhibition of S. aureus, S. pseumoniae and E. coli are indicated by “**” or “*” respectively; compounds which showed very good or good inhibition of S. aureus, S. pseumoniae and E. coli are indicated by “**” or “*” respectively
Conditions in all cases: broth microdilution in CAMHB, 35° C., approximately 18 hour
E. coli MG 1655 = test: In vitro minimum inhibitory concentration (MIC) assay, E. coli
Experimental: (§1) The following assay is used to determine the efficacy of the tetracycline compounds against common bacteria. 2 mg of each compound is dissolved in 100 μl of DMSO. The solution is then added to cation-adjusted Mueller Hinton broth (CAMHB), which results in a final compound concentration of 200 μg per ml. The tetracycline compound solutions are diluted to 50 μL volumes, with a test compound concentration of 0.098 μg/ml. Optical density (OD) determinations are made from fresh log-phase broth cultures of the test strains. Dilutions are made to achieve a final cell density of 1×10^6 CFU/ml. At OD=1, cell densities for different genera should be approximately:
(§2) 50 μl of the cell suspensions are added to each well of microtiter plates. The final cell density should be approximately 5×10^5 CFU/ml. These plates are incubated at 35° C. in an ambient air incubator for approximately 18 hour. The plates are read with a microplate reader and are visually inspected when necessary. The MIC is defined as the lowest concentration of the tetracycline compound that inhibits growth.
(§3) Table 3 gives the MIC (μg/mL) of selected substituted tetracycline compounds against S. aureus, S. pseuimoniae, and E. coli.

S. aureus RN450 = test: In vitro minimum inhibitory concentration (MIC) assay, S. aureus
Experimental: as §1, §2, §3

S. pneumoniae 157E = test: In vitro minimum inhibitory concentration (MIC) assay, S. pneumoniae
Experimental: as §1, §2, §3

Row | SMILES | Median MIC for E. coli MG 1655 (E. coli MG 1655) | Median MIC for S. aureus RN450 (S. aureus RN450) | Median MIC for S. pneumoniae 157E (S. pneumoniae 157E)
1 | CCNC(=O)c1cc(N(C)C)c2c(c1O)C(=O)C1=C(O)[C@]3(O)C(=O)C(C(N)=O)=C(O)[C@@H](N(C)C)[C@@H]3C[C@@H]1C2 | * | * | *
2 | CN(C)c1cc(C(=O)NCC(C)(C)C)c(O)c2c1C[C@H]1C[C@H]3[C@H](N(C)C)C(O)=C(C(N)=O)C(=O)[C@@]3(O)C(O)=C1C2=O | * | *** | **
3 | CN(C)c1cccc(-c2cc(N(C)C)c3c(c2O)C(=O)C2=C(O)[C@]4(O)C(=O)C(C(N)=O)=C(O)[C@H](N(C)C)[C@@H]4C[C@@H]2C3)c1 | * | *** | ***
4 | CC(=O)NCCNC(=O)c1cc(N(C)C)c2c(c1O)C(=O)C1=C(O)[C@]3(O)C(=O)C(C(N)=O)=C(O)[C@@H](N(C)C)[C@@H]3C[C@@H]1C2 | * | * | *
5 | CN(C)c1cc(-c2cccc(C(=O)O)c2)c(O)c2c1C[C@H]1C[C@H]3[C@H](N(C)C)C(O)=C(C(N)=O)C(=O)[C@@]3(O)C(O)=C1C2=O | * | * | *
6 | CN(C)c1cc(-c2ncco2)c(O)c2c1C[C@H]1C[C@H]3[C@H](N(C)C)C(O)=C(C(N)=O)C(=O)[C@@]3(O)C(O)=C1C2=O | * | ** | **
7 | CCONC(=O)c1cc(N(C)C)c2c(c1O)C(=O)C1=C(O)[C@]3(O)C(=O)C(C(N)=O)=C(O)[C@@H](N(C)C)[C@@H]3C[C@@H]1C2 | * | * | ***
8 | CC(=O)c1cc(N(C)C)c2c(c1O)C(=O)C1=C(O)[C@]3(O)C(=O)C(C(N)=O)=C(O)[C@H](N(C)C)[C@@H]3C[C@@H]1C2 | * | * | *
9 | CN(C)c1cc(-c2ccccn2)c(O)c2c1C[C@H]1C[C@H]3[C@H](N(C)C)C(O)=C(C(N)=O)C(=O)[C@@]3(O)C(O)=C1C2=O | * | *** | ***
10 | CN(C)c1cc(-c2cccnc2)c(O)c2c1C[C@H]1C[C@H]3[C@H](N(C)C)C(O)=C(C(N)=O)C(=O)[C@@]3(O)C(O)=C1C2=O | * | ** | **
11 | CN(C)c1cc(-c2cn[nH]c2)c(O)c2c1C[C@H]1C[C@H]3[C@H](N(C)C)C(O)=C(C(N)=O)C(=O)[C@@]3(O)C(O)=C1C2=O | * | * | *
12 | CN(C)c1cc(-c2ccc(C#N)nc2)c(O)c2c1C[C@H]1C[C@H]3[C@H](N(C)C)C(O)=C(C(N)=O)C(=O)[C@@]3(O)C(O)=C1C2=O | * | *** | ***
13 | CN(C)c1cc(C(=O)NCCO)c(O)c2c1C[C@H]1C[C@H]3[C@H](N(C)C)C(O)=C(C(N)=O)C(=O)[C@@]3(O)C(O)=C1C2=O | * | * | *
14 | CN(C)c1cc(C(=O)NC(C)(C)C)c(O)c2c1C[C@H]1C[C@H]3[C@H](N(C)C)C(O)=C(C(N)=O)C(=O)[C@@]3(O)C(O)=C1C2=O | * | ** | **
15 | COCC#Cc1cc(N(C)C)c2c(c1O)C(=O)C1=C(O)[C@]3(O)C(=O)C(C(N)=O)=C(O)[C@@H](N(C)C)[C@@H]3C[C@@H]1C2 | * | *** | ***
16 | CN(C)c1cc(C(=O)N2CCCCC2)c(O)c2c1C[C@H]1C[C@H]3[C@H](N(C)C)C(O)=C(C(N)=O)C(=O)[C@@]3(O)C(O)=C1C2=O | * | * | *
17 | CN(C)c1cc(C#N)c(O)c2c1C[C@H]1C[C@H]3[C@@H](N(C)C)C(O)=C(C(N)=O)C(=O)C3(O)C(O)=C1C2=O (stereo partly drawn) | * | *** | ***
18 | CN(C)c1cc(-c2ccncc2)c(O)c2c1C[C@H]1C[C@H]3[C@H](N(C)C)C(O)=C(C(N)=O)C(=O)[C@@]3(O)C(O)=C1C2=O | * | *** | ***
19 | CCCN(CC)C(=O)c1cc(N(C)C)c2c(c1O)C(=O)C1=C(O)[C@]3(O)C(=O)C(C(N)=O)=C(O)[C@@H](N(C)C)[C@@H]3C[C@@H]1C2 | * | * | *
20 | CN(C)c1ccc(-c2cc(N(C)C)c3c(c2O)C(=O)C2=C(O)[C@]4(O)C(=O)C(C(N)=O)=C(O)[C@@H](N(C)C)[C@@H]4C[C@@H]2C3)cc1 | * | *** | ***
21 | CCC(=O)c1cc(N(C)C)c2c(c1O)C(=O)C1=C(O)[C@]3(O)C(=O)C(C(N)=O)=C(O)[C@@H](N(C)C)[C@@H]3C[C@@H]1C2 | * | *** | ***
22 | CN(C)c1cc(-c2cc[nH]n2)c(O)c2c1C[C@H]1C[C@H]3[C@H](N(C)C)C(O)=C(C(N)=O)C(=O)[C@@]3(O)C(O)=C1C2=O | * | *** | **
23 | CC(=O)c1cccc(-c2cc(N(C)C)c3c(c2O)C(=O)C2=C(O)[C@]4(O)C(=O)C(C(N)=O)=C(O)[C@@H](N(C)C)[C@@H]4C[C@@H]2C3)c1 | * | *** | ***
24 | CCCNC(=O)c1cc(N(C)C)c2c(c1O)C(=O)C1=C(O)[C@]3(O)C(=O)C(C(N)=O)=C(O)[C@@H](N(C)C)[C@@H]3C[C@@H]1C2 | * | * | *
25 | CN(C)c1cc(C(N)=O)c(O)c2c1C[C@H]1C[C@H]3[C@H](N(C)C)C(O)=C(C(N)=O)C(=O)[C@@]3(O)C(O)=C1C2=O | * | * | *
26 | CN(C)c1cc(-c2ncccn2)c(O)c2c1C[C@H]1C[C@H]3[C@H](N(C)C)C(O)=C(C(N)=O)C(=O)[C@@]3(O)C(O)=C1C2=O | * | *** | **
27 | CN(C)c1cc(C(=O)N2CCCC2)c(O)c2c1C[C@H]1C[C@H]3[C@H](N(C)C)C(O)=C(C(N)=O)C(=O)[C@@]3(O)C(O)=C1C2=O | * | * | *
